Source: US11672834B2, “Probiotic and prebiotic compositions, and methods of use thereof for modulation of the microbiome” (Evelo Biosciences, Inc., priority 2014, dated 2023)

Experiments:
tumors = conditions: oral administration; cited from earlier work
[1] = test system: Blautia; Lactobacillus johnsonii; assay: Sugar fermentation by Blautia versus Lactobacillus johnsonii (pH and optical density, media lacking glucose); type: cell-based
C57Bl/6 female mice = conditions: mouse, in vivo
From the text: The trillions of organisms forming the microbiome function as an organ system interconnected throughout the body. The possibility that modification of the microbiome in a given physical location may influence the microbiome at other sites in the body (distal augmentation) was investigated. Seven week old C57Bl/6 female mice were acclimatized for 7 days prior to the start of the study by daily handling and shuffling between cages. All mice were housed at three mice per cage in individually vented cages (Thoren, Hazleton, Pa.). At day 0, baseline fresh fecal pellets, and vaginal lavages with 100 μL of sterile double-distilled water were collected and immediately frozen at −80° C. for microbiome analysis. […] Water alone is not expected to influence the microbiome and acted as a negative control. […] The impact of oral vancomycin is therefore expected to be limited to the gastrointestinal tract such that microbiome changes elsewhere in the body (e.g. vagina) would be attributable to distal augmentation. At day 6, fresh fecal pellets and vaginal lavages with 100 μL of sterile double-distilled water were collected and immediately stored at −80° C. for microbiome analysis.
Isolation and sequencing of microbial DNA from the stool and vaginal samples was performed by DNA Genotek (Ottawa, ON, Canada). The V3-V4 region of the 16S ribosomal subunit was amplified with custom PCR primers and sequenced on an Illumina MiSeq to a minimum acceptable read depth of 25,000 sequences per sample. […] These OTU's were then assigned a curated taxonomic label based on the seven level SILVA taxonomy.

[2] = test system: healthy, adult volunteers; assay: Normal human volunteer study of D-xylose: immunology (CRP, cytokines, T-cell markers) and gut microbiome; type: in vivo; conditions: for effect on gut microbiome (alpha diversity, community composition): stool 16S, normal individuals
From the text: Blood was collected at pre-specified pre- and post-ingestion time points to evaluate C-reactive protein (CRP), serum cytokines (tumor necrosis factor alpha [TNF-α], interleukin [IL]-2, IL-6, interferon gamma [IFN-γ], and IL-10), and T-cell markers CD3, CD4, CD8, CD25, and FOXP3. Plasma was also stored and may be tested for biomarkers and/or metabolic markers for up to 7 years.
A total of 7 stool samples were expected to be collected for each subject. Evaluation of changes in the gut microbiome were evaluated in stool samples through taxonomic classification, relative and statistical differential abundance analyses by cohort and time point, an alpha diversity analysis calculated using the Shannon diversity index by cohort and time point, a beta diversity analysis using Bray-Curtis dissimilarity and Unifrac distance by subject and time point, and a principal coordinates analysis using the beta diversity data.
Summary statistics (n, mean, standard deviation, median, minimum, and maximum) were presented for serum concentrations of CRP, flow cytometry T-cell markers (CD3, CD4, CD8, CD25, and FOXP3), and cytokines (TNF-α, IL-2, IL-6, IFN-γ, and IL-10) as per their nominal time points.
A total of 344 stool samples were collected in OMNIgene•GUT collection kits and shipped to the GenoFIND laboratory for DNA extraction and V3-V4 16S amplicon sequencing. […] Numerous taxa were identified as differentially abundant, but this finding may be attributable to the relatively small sample sizes of each cohort. […] The impact of xylose on the microbiome under disease conditions remains to be determined.

serum endotoxin = test system: serum endotoxin
From the text: FIG. 1 is a graph depicting serum endotoxin levels (EU/ml) over time following treatment with xylose.

mice with GVHD = conditions: mouse, in vivo
[3] = test system: Tregs in the large intestine; conditions: mouse, in vivo; cited from earlier work
[4] = test system: healthy, adult volunteers; conditions: human, in vivo, 28 days
Experimental: D-xylose is a carbon source generally preferred by anaerobic bacteria. […] A parallel, double-blind, 5 cohort escalation food safety study was conducted to examine D-xylose in normal human volunteers. The study was a double-blind, single-center, parallel group study designed to evaluate the tolerability and potential microbiome changes induced by ingestion of D-xylose at 5 different amounts in healthy, adult volunteers enrolled at 1 study center in the United States (US).
Subjects were screened for eligibility within 21 days prior to the first planned ingestion of study sweetener on Day 1 (Baseline). […]
Subjects returned to the study center weekly on Days 8, 15, 22, and 28 for ingestion, tolerability, and compliance evaluations. Safety was evaluated on a continual basis through adverse events (AE) monitoring, clinical laboratory measurements, vital sign monitoring, physical examinations, electrocardiograms (ECGs), telephone follow-up, and electronic subject ingestion diaries. Stool was collected pre-ingestion and at pre-specified time points, and post-ingestion samples were evaluated for changes in the gut microbiome compared with Baseline for all subjects. […]
Safety was evaluated on a continual basis through AE monitoring, clinical laboratory measurements, vital sign monitoring, physical examinations, ECGs, telephone follow-up, and electronic subject ingestion diaries. […]

[5] = test system: anaerobic commensal bacteria; assay: Carbon source utilization by commensal bacteria (Biolog PM01/PM02A plates, OD 750 nm); type: cell-based
[6] = Normal human volunteer study of D-xylose: pharmacokinetics (serum and urine D-xylose); type: in vivo; conditions: Day 15; 15 mg TID cohort; variability high
Experimental: Blood and urine were collected at pre-specified pre- and post-ingestion time points to measure D-xylose levels and to characterize the systemic absorption profiles of D-xylose. Serum D-xylose concentrations were summarized by cohort using nominal sample times according to actual amount received using summary statistics (n, coefficient of variation [CV], mean, standard deviation [SD], median, minimum, and maximum). Evidence for the occurrence of steady-state was assessed graphically by comparing the time course of either trough or 2-hour post-ingestion serum concentrations of D-xylose as different levels of D-xylose. Accumulation was assessed by comparing the 2-hour post-first-ingestion serum levels with those observed at Week 2 (Day 15) and Week 4 (Day 28). […] Urine PK parameters for D-xylose levels included Ae(0-t) (cumulative amount of sweetener recovered in urine) and percent sweetener amount excreted over a 5-hour period.

Compound: Bacteroides
- responsiveness to checkpoint inhibitor therapy in cancer (tumors): increases the responsiveness to checkpoint inhibitor therapy in cancer

Compound: C[C@H](O)[C@H](O)[C@@H](O)[C@@H](O)C=O [rhamnose]
- substrate fermentable by Blautia but not lactobacillus [1]: specifically augments Blautia but not lactobacillus

Compound: CN[C@H](CC(C)C)C(=O)N[C@H]1C(=O)N[C@@H](CC(N)=O)C(=O)N[C@H]2C(=O)N[C@H]3C(=O)N[C@H](C(=O)N[C@H](C(=O)O)c4cc(O)cc(O)c4-c4cc3ccc4O)[C@H](O)c3ccc(c(Cl)c3)Oc3cc2cc(c3O[C@@H]2O[C@H](CO)[C@@H](O)[C@H](O)[C@H]2O[C@H]2C[C@](C)(N)[C@H](O)[C@H](C)O2)Oc2ccc(cc2Cl)[C@H]1O [Vancomycin, vancomycin]
- impact on the microbiome of the gut (fecal samples, PCA at family level) (C57Bl/6 female mice): strong impact on the microbiome of the gut
- median abundance of bacterial species detected in vaginal samples at day 6 that were not present at day 0 (C57Bl/6 female mice): approximately 0.00002%
- day 0 to day 6 pattern in vaginal samples (PCA) (C57Bl/6 female mice; po): overall difference between the PBS and oral vancomycin groups

Compound: Bifidobacterium
- responsiveness to checkpoint inhibitor therapy in cancer (tumors): increases the responsiveness to checkpoint inhibitor therapy in cancer

Compound: O=C[C@H](O)[C@@H](O)[C@H](O)CO [xylose]
- effect on gut microbiome (alpha diversity, community composition) [2]: exerts subtle changes in the gut microbiome
- substrate fermentable by Blautia but not lactobacillus [1]: specifically augments Blautia but not lactobacillus
- basal levels of serum endotoxin (serum endotoxin; mouse, in vivo): reduces basal levels of serum endotoxin
- effect on the endotoxin increase caused by cipro (serum endotoxin; mouse, in vivo): counteracts the endotoxin increase
- effect on the endotoxin increase caused by enro (serum endotoxin; mouse, in vivo): not
- Blautia in the intestinal flora (mice with GVHD): expansion of Blautia in the intestinal flora
- survival of mice with GVHD (mice with GVHD): improved survival of mice with GVHD

Compound: CCN1CCN(c2cc3c(cc2F)c(=O)c(C(=O)O)cn3C2CC2)CC1 [enrofloxacin, reference compound]
- serum endotoxin levels after antibiotic treatment, recovery (serum endotoxin; mice, by day 14): return to baseline
- serum endotoxin levels after antibiotic treatment (serum endotoxin; mice, measured 2 days after a 5 day course, at day 0): leads to an increase in serum endotoxin levels

Compound: CC(=O)O [acetate]
- numbers of Tregs in the large intestine [3]: restored normal numbers of Tregs in the large intestine

Compound: CCC(=O)O [propionate]
- numbers of Tregs in the large intestine [3]: restored normal numbers of Tregs in the large intestine

Compound: O=C[C@H](O)[C@@H](O)[C@H](O)CO [D-xylose]
- subjects with at least 1 AE considered related to study sweetener [4]: 25.0%
- serum interferon gamma over time ([2]; 2 g and 15 g D-xylose cohorts): trend for reduced levels of serum interferon gamma over time
- total T-cells or T-cell subsets over time ([2]; any D-xylose ingestion amount): No consistent or clinically meaningful changes over time
- effect on gut microbiome (alpha diversity, community composition) [2]: no apparent significant impact on the intra-sample alpha diversity
- use as carbon source by bacterial strains [5]: used as a carbon source by several bacterial strains
- accumulation ratio [6]: approximately 1.9 fold
